Reference: publication PMC4628094, “In Vitro Assessment of Uptake and Lysosomal Sequestration of Respiratory Drugs in Alveolar Macrophage Cell Line NR8383” (Pharmaceutical Research, 2015)
Where a name gives a salt, the structure may show the parent alone. Read-outs that look alike come from different tables or passages of the source. Marks after values point to notes of the source that are not given here.

Legend:
[1] = tested on: Lung granule fraction containing lysosomes from male Wistar rats; design: method as in ref (6) (a number printed in a supplementary file, which may have a reference list of its own: not looked up in the article's list); settings: NH4Cl 10 mM, drug 1 µM, 10 min; ref (6); cited from earlier work
[2] = cited from earlier work
[3] = Physicochemical properties, experimental literature values (Table I); settings: classification in Table I
[4] = tested on: Lung tissue slices from male Wistar rats; design: method as in ref (14) (a number printed in a supplementary file, which may have a reference list of its own: not looked up in the article's list); settings: monensin 10 µM, drug 5 µM, 60 min, ref (14); cited from earlier work
[5] = tested on: Liver tissue slices from male Wistar rats; design: method as in ref (9) (a number printed in a supplementary file, which may have a reference list of its own: not looked up in the article's list); settings: NH4Cl 20 mM, drug 5 µM, 60 min, ref (9); cited from earlier work
[6] = tested on: Liver tissue slices from male Wistar rats; design: method as in ref (8) (a number printed in a supplementary file, which may have a reference list of its own: not looked up in the article's list); settings: drug 5 µM, 60 min, ref (8), cited from earlier work; for Reduction in total uptake (%): NH4Cl 20 mM
[7] = tested on: Lung tissue slices from male Wistar rats; design: method as in ref (5) (a number printed in a supplementary file, which may have a reference list of its own: not looked up in the article's list); settings: NH4Cl 20 mM, drug 5 µM, 60 min, ref (5); cited from earlier work
[8] = tested on: Lung tissue slices from male Wistar rats; design: method as in ref (8) (a number printed in a supplementary file, which may have a reference list of its own: not looked up in the article's list); settings: drug 5 µM, 60 min, ref (8), cited from earlier work; for Reduction in total uptake (%): NH4Cl 20 mM
[9] = tested on: Lung tissue slices from male Wistar rats; design: method as in ref (9) (a number printed in a supplementary file, which may have a reference list of its own: not looked up in the article's list); settings: NH4Cl 20 mM, drug 5 µM, 60 min, ref (9); cited from earlier work
[10] = tested on: Liver tissue slices from male Wistar rats; design: method as in ref (14) (a number printed in a supplementary file, which may have a reference list of its own: not looked up in the article's list); settings: monensin 10 µM, drug 5 µM, 60 min, ref (14); cited from earlier work
NR8383 cells [11] = assay: Lysosomal sequestration studies in NR8383 with NH4Cl, monensin and nigericin; settings: for % Reduction in Kp by NH4Cl: NH4Cl 20 mM; for reduction in Kp in the presence of chemical agents (summary in Discussion): NR8383, NH4Cl, monensin, nigericin
Method: (§1) The extent of accumulation of drugs in lysosomes was assessed using the same uptake methodology, as described above in the absence and presence of NH4Cl and ionophores, monensin and nigericin. […] In addition, a range of incubation conditions was explored, including pre-incubation and co-incubation alone and combined together. Once the conditions were optimised, further experiments were performed with 20 mM NH4Cl co-incubated with investigated drugs. […] For incubations with monensin and nigericin, all drugs were prepared at 5 μM concentration and the incubations were carried out for 5 min (single time point). Following the treatment of the cell monolayers with drug alone or drug with the agents mentioned, incubations were stopped by washing of the cells with ice-cold DPBS as described above, followed by cell lysis in deionised water. All incubations were carried out in duplicate and experiments were performed for three separate occasions. The removed incubation media were retained for the measurement of drug concentrations and subsequent determination of Kp for each compound. Analysis of samples in LC-MS/MS was performed after cells were kept at −20°C overnight.
(§2) Kp and CLuptake were determined as described above for each drug both under control condition and in the presence of a chemical agent affecting the pH gradient between cytosol and lysosomes. The reduction in Kp and CLuptake of each drug in the presence of the chemical agents was expressed as a percentage relative to control and used as an indicator of the extent of lysosomal sequestration. A 50% reduction in both parameters was set as a cut-off for lysosomal accumulation, while also taking into account the physicochemical properties of the compounds (Table I) and the uncertainty associated with the experimental data.
(§3) The in vitro parameters were calculated on at least three separate occasions and the mean data were reported. When assessing the extent of lysosomal sequestration, the control and chemical agent treated cells were compared using the two-tailed, paired t-test in order to determine statistically significant difference between the two conditions. Values were reported as significant when p < 0.05.

[12] = as above; settings: rat, NR8383 cells; for Kp at 10 min, 5 μM: NR8383, 5 μM drug; for Kp at 10 min, 20 µM: NR8383, 20 µM drug
Method: as §1, §2, §3

NR8383 cells [13] = assay: Drug uptake in NR8383 at 37 and 4°C (CLuptake, CLdiff, Kp); settings: NR8383, 5 μM; for Contribution of passive (%): CLdiff relative to CLuptake
Method: (§4) The studies were carried out in a 24-well plate format and the in vitro conditions were optimised in terms of cell detachment method from culture flasks, coating type of 24-well plates, seeding density, culturing time and drug incubation time points. Briefly, for cell detachment, gentle scraping versus Mg^2+-Ca^2+ free DPBS treatment of cells in culture flasks were tested. Considering the semi-adherent nature of AMs, cell seeding into non-coated, collagen-I and poly-D-lysine coated 24-well plates was investigated for cell attachment, distribution in the wells and detachment following DPBS washes during the uptake experiments. In addition, seeding densities of 0.36 and 0.72 × 10^6 cells per well were assessed with respect to cell attachment, confluency following culture (plating efficiency) and potential cell detachment following DPBS washes. Culturing time ranging from 4 to 24 h was investigated for optimal cell attachment before carrying out uptake experiments. Uptake rate and Kp data were normalised by cell number determined indirectly by measuring the amount of protein in samples by bicinchoninic acid (BCA) protein assay (Thermo Scientific, Loughborough, UK). Following the optimisation, detachment of NR8383 from cell culture flasks was performed by gentle scraping prior to cell counting and seeding into collagen-I coated 24-well plates at 0.5 × 10^6 cells per well. Cells were cultured for 16 h at 37°C, 5% CO2 (CO2 incubator, MCO-17AIC, Sanyo Biomedical, Loughborough, UK) before uptake studies performed over 1 to 10 min period.
(§5) The drug uptake in NR8383 corresponding to these conditions was described by total uptake (CLuptake) and passive diffusion (CLdiff) clearance terms, respectively. […] Substrate solutions were prepared by dilution of the stock solutions in DPBS resulting in final DMSO content < 1%. Uptake studies were performed in the presence of 1 mM ABT, a nonspecific P450 inhibitor, in order to avoid any potential impact of phase I metabolism. […] Following microscopy, the CGM was removed, cells were washed twice with 800 μL of either pre-warmed or ice-cold DPBS (for experiments at 37 and 4°C, respectively) and pre-incubation with 500 μL of pre-warmed or ice-cold ABT/DPBS was carried out for 20 min. Where ABT pre-treatment was not necessary, cell monolayers were treated with 500 μL of DPBS only. Once pre-incubation buffer was removed from the cell monolayers, incubations were started by addition of 400 μL of substrate solution (pre-warmed or ice-cold) in each well. Each substrate was incubated with the cells for 1, 2, 5 and 10 min and each time point at 37°C and 4°C. For 37°C experiments, incubation was carried out on a dry heater block maintained at 37°C throughout the experiment (Tecam Dri-block DB-3, Tecam, Princeton, NJ) and for 4°C experiments, the procedure was carried out on ice. Incubation with substrate was stopped by removal of the media with drug solution and washing the monolayers three times with 800 μL ice-cold DPBS. The back-diffusion of the drug from the cell into the medium was considered to be negligible under these conditions. The removed incubation media were retained for the measurement of drug medium concentrations and subsequent determination of Kp for each drug. The cells were lysed by addition of 200 μL ice-cold deionised water; cell lysates were kept at −20°C overnight and then processed further for LC-MS/MS analysis. Experiments were performed on three or more separate occasions for each drug investigated. […] The amount of protein per well was measured using a BSA calibration curve and absorbances read at 562 nm (S22 Boeco UV-Visible Spectrophotometer, Hamburg, Germany).

[14] = as above; settings: rat, NR8383 cells; for Kp at 10 min, 5 μM: Kp (cell-to-medium concentration ratio), NR8383, 5 μM, 37°C
Method: as §4, §5

[15] = tested on: Lung tissue slices from male Sprague-Dawley rats; settings: monensin 10 µM, desipramine, diazepam 5 µM, chloroquine, thiopental 10 µM, 60 min, ref (3); cited from earlier work
[16] = tested on: Brain slices from male Wistar rats; design: method as in ref (10) (a number printed in a supplementary file, which may have a reference list of its own: not looked up in the article's list); settings: drug 5 µM, 60 min, ref (10), cited from earlier work
NR8383 cells [17] = assay: LysoTracker Red (LTR) confocal assessment of lysosomal sequestration in NR8383; type: cell-based, rat; settings: NH4Cl 20 mM, monensin 5 μM, nigericin 10 μM with 200 nM LTR
[18] = experimental value, ref ([21])-([30]) per drug, Table I
[19] = Kp + NH4Cl, 20 mM NH4Cl co-incubated, 10 min

CC(CN1c2ccccc2Sc2ccccc21)N(C)C (stereo not shown) [Promethazine]
Reduction in total uptake (%) [1]: 17%

CO[C@H]1/C=C/O[C@@]2(C)Oc3c(C)c(O)c4c(O)c(c(/C=N/N5CCN(C)CC5)c(O)c4c3C2=O)NC(=O)/C(C)=C\C=C\[C@H](C)[C@H](O)[C@@H](C)[C@@H](O)[C@@H](C)[C@H](OC(C)=O)[C@@H]1C [Rifampicin]
LogD7.4 [2, 18]: 0.3 | pKa_b (basic pKa) [2, 18]: 6.70 | Acid–base Property [3]: Zwitterion

CN[C@H]1CC[C@@H](c2ccc(Cl)c(Cl)c2)c2ccccc21 [Sertraline]
Reduction of total uptake (%) [4]: 50% | Reduction in total uptake (%) [5]: 29% | Reduction in total uptake (%) [6]: 42% | Reduction in total uptake (%) [7]: 42% | Reduction in total uptake (%) [8]: 40% | Reduction in total uptake (%) [9]: 45% | Reduction of total uptake (%) [10]: 19%

CC(C)(C)NCC(O)c1cc(O)cc(O)c1 (stereo not shown) [Terbutaline]
% Reduction in Kp by NH4Cl (NR8383 cells [11]; NR8383, 5 μM drug): 21 ± 5.0% | % Reduction in Kp by NH4Cl (NR8383 cells [11]; NR8383, 20 µM drug): 22^ a % | % Reduction in CLuptake by NH4Cl (20 mM) (NR8383 cells [11]; NR8383, at 5 µM drug): 15 ± 15% | % Reduction in CLuptake by NH4Cl (20 mM) (NR8383 cells [11]; NR8383, at 20 µM drug): 36 ± 23% | reduction in Kp in the presence of chemical agents (summary in Discussion) (NR8383 cells [11]): 20–40% | Kp at 10 min, 5 μM [12, 19]: 0.72 ± 0.31 | Kp at 10 min, 20 µM ([12]; Kp + NH4Cl, 20 mM NH4Cl): 0.56 ± 0.29 | Kp at 10 min, 5 μM ([12]; Kp Control, control): 0.92 ± 0.39 | Kp at 10 min, 20 µM ([12]; Kp Control, control): 0.79 ± 0.46 | LogD7.4 ([2]; Average value of two studies, ref ([27],[28])): −1.50 ^b | pKa_a (acidic pKa) [2, 18]: 8.60 | pKa_b (basic pKa) [2, 18]: 9.90 | Acid–base Property [3]: Base | Kp (cell-to-medium concentration ratio) (NR8383 cells [13]; 37°C, 10 min): 0.69 ± 0.16 | Contribution of passive (%) (NR8383 cells [13]): 47.6% | hepatocyte CLint at 5 μM [14]: < 1 µL/min/1e6 cells | Kp at 10 min, 5 μM [14]: ~1

CCCC(C)C1(CC)C(=O)NC(=S)NC1=O (stereo not shown) [Thiopental]
Reduction of total uptake (%) [15]: 10%

CSc1ccc2c(c1)N(CCC1CCCCN1C)c1ccccc1S2 (stereo not shown) [Thioridazine]
Reduction in total uptake (%) ([16]; NH4Cl 20 mM): 62% | Reduction of total uptake (%) ([16]; monensin 10 µM): 58% | Reduction in total uptake (%) [6]: 75% | Reduction of total uptake (%) ([6]; monensin 10 µM): 82% | Reduction in total uptake (%) [8]: 41% | Reduction of total uptake (%) ([8]; monensin 10 µM): 35%

C[N+]1(C)[C@@H]2C[C@@H](OC(=O)C(O)(c3cccs3)c3cccs3)C[C@H]1[C@@H]1O[C@@H]12 [Tiotropium bromide]
% Reduction in Kp by NH4Cl (NR8383 cells [11]; NR8383, 5 μM drug): 12 ± 1.8% | % Reduction in Kp by NH4Cl (NR8383 cells [11]; NR8383, 20 µM drug): 35 ± 26% | % Reduction in CLuptake by NH4Cl (20 mM) (NR8383 cells [11]; NR8383, at 5 µM drug): 15 ^a % | % Reduction in CLuptake by NH4Cl (20 mM) (NR8383 cells [11]; NR8383, at 20 µM drug): 28 ^a % | reduction in Kp in the presence of chemical agents (summary in Discussion) (NR8383 cells [11]): < 15% | Kp at 10 min, 5 μM [12, 19]: 3.87 ± 2.61 | Kp at 10 min, 20 µM ([12]; Kp + NH4Cl, 20 mM NH4Cl): 2 ± 0.64 | Kp at 10 min, 5 μM ([12]; Kp Control, control): 4.39 ± 2.9 | Kp at 10 min, 20 µM ([12]; Kp Control, control): 2.4 ± 1 | Acid–base Property [3]: Permanently cationic | Contribution of passive (%) (NR8383 cells [13]): 16.3% | Kp at 10 min, 5 μM [14]: 8.74 ± 7.24

CC[C@@]1([C@@H]2O[C@@H]([C@H]3O[C@@](O)(CO)[C@H](C)C[C@@H]3C)C[C@@H]2C)CC[C@H]([C@]2(C)CC[C@]3(C[C@H](O)[C@@H](C)[C@@H]([C@@H](C)[C@@H](OC)[C@H](C)C(=O)O)O3)O2)O1 [monensin, monensin sodium salt]
reduced LTR fluorescent signal (NR8383 cells [17]): up to 85%

CO[C@@H]1C[C@@H](C[C@H]2CC[C@H](C)[C@H]([C@@H](C)C(=O)O)O2)O[C@]2(O[C@](C)([C@H]3CC[C@@](C)([C@@H]4O[C@@H]([C@H]5O[C@@](O)(CO)[C@H](C)C[C@@H]5C)C[C@@H]4C)O3)C[C@H]2C)[C@@H]1C [nigericin, nigericin sodium salt]
reduced LTR fluorescent signal (NR8383 cells [17]): up to 85%
